One assay has as its target ADP-stimulated platelets (Homo sapiens, UniProt P05106+P08514). The assay can be described thus: Inhibition of 125I-fibrinogen binding to ADP-stimulated platelets. To be noted: for Extent of inhibition of fibrinogen binding to platelets: high concentrations of peptide; for IC50: read-out: IC50 Platelets (Table III), mean of three separate experiments.
For assay [1], the target named is T1, endothelial cells (UniProt P05106+P06756). Briefly: Inhibition of 125I-fibrinogen binding to endothelial cells in suspension. On the set-up: species or system human. Particulars: for Extent of inhibition of fibrinogen binding to endothelial cells: high concentrations of peptide.
The next assay has as its system washed platelets. Briefly: Fibrinogen-dependent aggregation of washed platelets. In kind it is cell-based, human. To be noted: 2 mM peptide, 20 μM ADP, medium 199.
The target of assay [2] is T1, endothelial cells. Briefly: Endothelial cell spreading on fibrinogen. To be noted: 2 mM peptide, medium 199, 2% BSA. The class given is cell-based, human.

Usually IC50 stands for the concentration that gives 50% inhibition.

Residues, ends and D or L forms follow the SMILES beside them. Some results are limits rather than exact numbers.

T1 sequence (P06756 31-1048): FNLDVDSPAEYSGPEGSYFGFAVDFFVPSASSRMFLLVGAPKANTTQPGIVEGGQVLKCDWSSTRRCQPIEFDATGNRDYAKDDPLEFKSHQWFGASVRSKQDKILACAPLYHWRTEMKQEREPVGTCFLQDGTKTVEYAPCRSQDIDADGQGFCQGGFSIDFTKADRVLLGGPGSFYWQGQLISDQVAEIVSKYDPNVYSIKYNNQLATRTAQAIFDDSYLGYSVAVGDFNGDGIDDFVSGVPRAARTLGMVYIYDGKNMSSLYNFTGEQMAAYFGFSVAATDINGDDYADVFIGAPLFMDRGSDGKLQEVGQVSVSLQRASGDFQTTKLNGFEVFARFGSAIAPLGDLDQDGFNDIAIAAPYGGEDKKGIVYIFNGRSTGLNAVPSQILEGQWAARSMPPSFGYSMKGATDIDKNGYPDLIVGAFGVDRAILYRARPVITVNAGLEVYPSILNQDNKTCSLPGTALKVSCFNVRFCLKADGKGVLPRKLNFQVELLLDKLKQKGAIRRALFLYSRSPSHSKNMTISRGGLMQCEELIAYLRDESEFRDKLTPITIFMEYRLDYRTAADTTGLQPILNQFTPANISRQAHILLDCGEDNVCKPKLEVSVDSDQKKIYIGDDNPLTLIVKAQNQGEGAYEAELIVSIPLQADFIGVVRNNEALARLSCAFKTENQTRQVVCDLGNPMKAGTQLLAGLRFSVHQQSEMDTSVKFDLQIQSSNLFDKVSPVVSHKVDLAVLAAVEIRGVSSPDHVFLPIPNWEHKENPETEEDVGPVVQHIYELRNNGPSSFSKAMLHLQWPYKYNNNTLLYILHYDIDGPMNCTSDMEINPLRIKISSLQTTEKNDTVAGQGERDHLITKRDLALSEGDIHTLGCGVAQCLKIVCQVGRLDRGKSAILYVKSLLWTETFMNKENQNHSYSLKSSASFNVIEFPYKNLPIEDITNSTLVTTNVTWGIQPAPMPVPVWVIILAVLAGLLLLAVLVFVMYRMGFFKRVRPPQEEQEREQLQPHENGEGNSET
T1 sequence (P05106 27-788): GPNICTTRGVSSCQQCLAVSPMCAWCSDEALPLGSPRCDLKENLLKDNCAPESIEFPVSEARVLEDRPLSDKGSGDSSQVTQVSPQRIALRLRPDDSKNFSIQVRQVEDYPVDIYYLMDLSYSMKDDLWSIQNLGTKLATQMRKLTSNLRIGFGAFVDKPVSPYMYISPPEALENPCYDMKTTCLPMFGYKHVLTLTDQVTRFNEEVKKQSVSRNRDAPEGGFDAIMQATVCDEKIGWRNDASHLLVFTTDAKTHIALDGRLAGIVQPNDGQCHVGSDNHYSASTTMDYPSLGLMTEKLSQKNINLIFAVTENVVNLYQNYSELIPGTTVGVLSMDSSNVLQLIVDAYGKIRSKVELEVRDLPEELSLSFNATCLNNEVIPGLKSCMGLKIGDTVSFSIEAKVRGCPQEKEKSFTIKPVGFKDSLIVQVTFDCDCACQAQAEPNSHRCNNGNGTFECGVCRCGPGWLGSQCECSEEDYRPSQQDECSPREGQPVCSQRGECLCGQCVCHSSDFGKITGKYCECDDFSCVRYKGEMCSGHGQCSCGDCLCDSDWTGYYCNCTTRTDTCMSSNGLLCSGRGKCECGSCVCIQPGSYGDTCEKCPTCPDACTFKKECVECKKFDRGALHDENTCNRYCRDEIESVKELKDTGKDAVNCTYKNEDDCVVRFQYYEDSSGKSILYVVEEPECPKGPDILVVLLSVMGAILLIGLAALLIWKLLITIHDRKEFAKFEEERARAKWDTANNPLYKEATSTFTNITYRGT
T1 sequence (P02671 36-866 partner): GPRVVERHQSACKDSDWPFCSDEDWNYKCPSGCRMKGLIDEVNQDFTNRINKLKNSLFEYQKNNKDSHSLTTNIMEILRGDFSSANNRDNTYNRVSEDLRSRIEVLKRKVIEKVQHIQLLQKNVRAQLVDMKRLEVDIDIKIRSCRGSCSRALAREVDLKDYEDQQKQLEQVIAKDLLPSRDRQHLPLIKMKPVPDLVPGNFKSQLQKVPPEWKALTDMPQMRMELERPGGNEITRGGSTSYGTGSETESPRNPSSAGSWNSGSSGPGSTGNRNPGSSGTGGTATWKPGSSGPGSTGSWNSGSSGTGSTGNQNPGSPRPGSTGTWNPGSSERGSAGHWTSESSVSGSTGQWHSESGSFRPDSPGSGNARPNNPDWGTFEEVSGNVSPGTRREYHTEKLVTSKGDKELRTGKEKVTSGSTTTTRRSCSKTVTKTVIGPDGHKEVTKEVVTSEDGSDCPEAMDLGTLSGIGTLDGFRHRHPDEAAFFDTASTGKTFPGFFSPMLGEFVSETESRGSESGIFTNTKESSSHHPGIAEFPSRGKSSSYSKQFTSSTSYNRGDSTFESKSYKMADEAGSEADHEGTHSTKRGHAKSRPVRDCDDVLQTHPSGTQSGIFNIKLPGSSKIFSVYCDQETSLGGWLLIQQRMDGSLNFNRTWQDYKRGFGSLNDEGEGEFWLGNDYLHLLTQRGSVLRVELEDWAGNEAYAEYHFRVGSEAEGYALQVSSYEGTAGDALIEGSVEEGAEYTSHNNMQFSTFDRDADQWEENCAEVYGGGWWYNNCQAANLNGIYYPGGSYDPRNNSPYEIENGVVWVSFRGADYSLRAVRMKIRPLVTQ
T1 sequence (P02675 45-491 partner): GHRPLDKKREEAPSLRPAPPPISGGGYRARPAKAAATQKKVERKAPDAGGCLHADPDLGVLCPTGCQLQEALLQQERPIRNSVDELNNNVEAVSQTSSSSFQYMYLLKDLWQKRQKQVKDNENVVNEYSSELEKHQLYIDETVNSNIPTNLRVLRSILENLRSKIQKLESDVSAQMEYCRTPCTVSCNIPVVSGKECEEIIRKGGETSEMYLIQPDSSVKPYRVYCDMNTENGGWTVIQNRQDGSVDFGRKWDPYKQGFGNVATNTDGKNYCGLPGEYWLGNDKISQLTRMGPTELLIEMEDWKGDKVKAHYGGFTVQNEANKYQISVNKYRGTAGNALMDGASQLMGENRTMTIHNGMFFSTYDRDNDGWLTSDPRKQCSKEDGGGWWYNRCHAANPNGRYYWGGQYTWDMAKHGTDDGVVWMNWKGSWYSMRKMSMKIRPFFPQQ
T1 sequence (P02679 27-453 partner): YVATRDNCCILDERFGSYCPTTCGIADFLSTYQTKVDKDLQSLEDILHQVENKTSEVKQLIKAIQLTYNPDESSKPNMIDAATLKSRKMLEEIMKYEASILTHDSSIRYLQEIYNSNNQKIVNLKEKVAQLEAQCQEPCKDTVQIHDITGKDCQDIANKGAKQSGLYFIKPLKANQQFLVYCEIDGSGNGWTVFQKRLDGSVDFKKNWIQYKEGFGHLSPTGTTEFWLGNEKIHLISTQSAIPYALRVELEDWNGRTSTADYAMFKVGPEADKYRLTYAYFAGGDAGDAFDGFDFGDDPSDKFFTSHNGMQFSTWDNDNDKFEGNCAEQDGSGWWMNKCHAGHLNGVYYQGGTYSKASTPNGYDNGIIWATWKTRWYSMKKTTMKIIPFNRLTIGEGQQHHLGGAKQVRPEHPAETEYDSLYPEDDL
ADP-stimulated platelets, sequence (P08514 32-1039): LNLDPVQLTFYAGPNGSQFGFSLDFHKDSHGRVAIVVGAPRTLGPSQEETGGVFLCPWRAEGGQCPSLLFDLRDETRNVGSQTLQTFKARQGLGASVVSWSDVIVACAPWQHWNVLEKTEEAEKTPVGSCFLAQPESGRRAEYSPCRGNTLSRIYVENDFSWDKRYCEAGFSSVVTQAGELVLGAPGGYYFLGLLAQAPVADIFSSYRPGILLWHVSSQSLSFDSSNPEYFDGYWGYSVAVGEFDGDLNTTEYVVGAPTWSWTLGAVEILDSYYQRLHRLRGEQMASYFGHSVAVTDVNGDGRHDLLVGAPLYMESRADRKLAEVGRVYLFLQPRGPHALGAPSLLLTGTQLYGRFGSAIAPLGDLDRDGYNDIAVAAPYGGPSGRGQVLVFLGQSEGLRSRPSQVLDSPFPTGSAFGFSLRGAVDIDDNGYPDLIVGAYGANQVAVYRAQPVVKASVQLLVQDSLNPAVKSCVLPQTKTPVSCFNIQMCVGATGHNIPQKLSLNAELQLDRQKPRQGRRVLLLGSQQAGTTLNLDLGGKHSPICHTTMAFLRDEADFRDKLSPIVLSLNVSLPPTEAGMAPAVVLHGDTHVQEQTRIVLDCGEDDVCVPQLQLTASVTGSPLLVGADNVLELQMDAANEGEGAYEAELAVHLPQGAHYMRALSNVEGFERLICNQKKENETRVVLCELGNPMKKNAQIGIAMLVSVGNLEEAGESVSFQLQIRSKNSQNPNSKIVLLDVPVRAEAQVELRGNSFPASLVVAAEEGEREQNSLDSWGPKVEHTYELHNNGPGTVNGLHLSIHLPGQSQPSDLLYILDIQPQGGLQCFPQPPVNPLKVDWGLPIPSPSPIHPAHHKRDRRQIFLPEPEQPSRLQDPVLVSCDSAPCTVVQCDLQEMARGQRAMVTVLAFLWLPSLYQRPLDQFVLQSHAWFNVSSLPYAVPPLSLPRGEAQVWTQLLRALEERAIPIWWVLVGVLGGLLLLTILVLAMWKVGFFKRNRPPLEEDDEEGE
ADP-stimulated platelets, sequence (P05106 27-788): as the sequence (P05106 27-788) above
ADP-stimulated platelets, sequence (P02671 36-866 partner): as the sequence (P02671 36-866 partner) above
ADP-stimulated platelets, sequence (P02675 45-491 partner): as the sequence (P02675 45-491 partner) above
ADP-stimulated platelets, sequence (P02679 27-453 partner): as the sequence (P02679 27-453 partner) above

As for `CC(C)[C@H](NC(=O)[C@H](CC(=O)O)NC(=O)CNC(=O)[C@H](C)NC(=O)[C@H](CCC(N)=O)NC(=O)[C@H](CCCCN)NC(=O)[C@H](C)NC(=O)CNC(=O)CN)C(=O)O` [G9] (H-GGAKQAGDV-OH; N-terminus assumed), the “Extent of inhibition of fibrinogen binding to platelets” value at ADP-stimulated platelets was “complete”. For the same molecule, the “Extent of inhibition of fibrinogen binding to endothelial cells” value at endothelial cells [1] was “only partially inhibited”.

For `CC(C)C[C@H](NC(=O)[C@H](Cc1c[nH]cn1)NC(=O)[C@@H](N)Cc1c[nH]cn1)C(=O)NCC(=O)NCC(=O)N[C@@H](C)C(=O)N[C@@H](CCCCN)C(=O)N[C@@H](CCC(N)=O)C(=O)N[C@@H](C)C(=O)NCC(=O)N[C@@H](CC(=O)O)C(=O)N[C@H](C(=O)O)C(C)C` [H12] (H-HHLGGAKQAGDV-OH; N-terminus assumed), the “Extent of inhibition of fibrinogen binding to platelets” value on ADP-stimulated platelets was “complete”. Also, at endothelial cells [1], the “Extent of inhibition of fibrinogen binding to endothelial cells” value is “only partially inhibited”.

On to `CC(C)[C@H](NC(=O)[C@H](CC(=O)O)NC(=O)CNC(=O)[C@H](C)NC(=O)[C@H](CCC(N)=O)NC(=O)[C@@H](N)Cc1c[nH]cn1)C(=O)O` [HQAGDV] (H-HQAGDV-OH; N-terminus assumed), for which, on ADP-stimulated platelets, the half-maximal inhibitory concentration (IC50) was greater than 1 mM. Further, at endothelial cells [1] (fibrinogen binding inhibition), the “Potency on endothelial cells relative to platelets” value is “at least fivefold”. Besides, the “Inhibition Platelet aggregation” value with washed platelets was determined as 0%. Further, at endothelial cells [2], the Endothelial cell spreading entry is “+ +”.

Regarding `CC(C)[C@H](NC(=O)[C@H](CC(=O)O)NC(=O)CNC(=O)[C@H](C)NC(=O)[C@H](CCC(N)=O)NC(=O)[C@@H](N)CCCNC(=N)N)C(=O)O` [RQAGDV] (H-RQAGDV-OH; N-terminus assumed), the half-inhibitory concentration (IC50) on ADP-stimulated platelets was greater than 1 mM.

Source of the values: PMC2115601 (The Journal of Cell Biology, 1989).
